Assay results from ChEMBL document CHEMBL1201862, “PubChem BioAssay data set” (2004).
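96-well plates; 48 h exposure; 5 concentrations. Endpoints by linear interpolation between flanking doses. Not reached: highest tested concentration assigned. Abbreviation: GI50, concentration required for 50% inhibition of growth.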 Active and inactive are the calls of the source. Cut-off read from the data, not from the text of the source: active = GI50 up to about 1.1 µM and inactive = higher.

Columns and labels:
Experiment in all cases: NCI-60 cell line screen, 48 h
U-251 = system: U-251
SW-620 = system: SW-620
HCC 2998 = system: HCC 2998
MOLT-4 = system: MOLT-4
NCI-H23 = system: NCI-H23
SF-268 = system: SF-268
KM12 = system: KM12
HCT-15 = system: HCT-15
OVCAR-5 = system: OVCAR-5
SNB-75 = system: SNB-75
SF-295 = system: SF-295
SNB-19 = system: SNB-19
HOP-92 = system: HOP-92
IGROV-1 = system: IGROV-1
MCF7 = system: MCF7
MDA-MB-435 = system: MDA-MB-435
BT-549 = system: BT-549
A549 = system: A549
NCI/ADR-RES = system: NCI/ADR-RES
OVCAR-3 = system: OVCAR-3

Row | Compound | GI50 (U-251) | GI50 (SW-620) | GI50 (HCC 2998) | GI50 (MOLT-4) | GI50 (NCI-H23) | GI50 (SF-268) | GI50 (KM12) | GI50 (HCT-15) | GI50 (OVCAR-5) | GI50 (SNB-75) | GI50 (SF-295) | GI50 (SNB-19) | GI50 (HOP-92) | GI50 (IGROV-1) | GI50 (MCF7) | GI50 (MDA-MB-435) | GI50 (BT-549) | GI50 (A549) | GI50 (NCI/ADR-RES) | GI50 (OVCAR-3)
1 | CCCC[C@H]1C(=O)O[C@H](C)[C@H](NC(=O)c2cccc(NC=O)c2OC)C(=O)O[C@@H](C)[C@@H]1OC(=O)C(C)CC.CCCC[C@H]1C(=O)O[C@H](C)[C@H](NC(=O)c2cccc(NC=O)c2OC)C(=O)O[C@@H](C)[C@@H]1OC(=O)CC(C)C (stereo not given in full) | 9.46 µM (inactive) | 20.3 µM (inactive) | 29 µM (inactive) | 11.2 µM (inactive) | 7.36 µM (inactive) | 14.2 µM (inactive) | 11.6 µM (inactive) | 12.8 µM | 22.2 µM (inactive) | 8.02 µM (inactive) | 7.45 µM (inactive) | 9.44 µM (inactive) | 6.98 µM (inactive) | 7.1 µM (inactive) | 12.5 µM (inactive) | 10.3 µM (inactive) | 16.8 µM (inactive) | 10.3 µM (inactive) | 23 µM (inactive) | 10.2 µM (inactive)
2 | COc1ccc(/C=C2\CCC(CN3CCOCC3)C2=O)cc1 (stereo not given) | 17.3 µM (inactive) | 1.79 µM (inactive) | 5.48 µM (inactive) | 1.83 µM (inactive) | 5.94 µM (inactive) | 6.76 µM (inactive) | 5.65 µM (inactive) | 2.39 µM | 9.06 µM (inactive) | 4.68 µM (inactive) | 17.2 µM (inactive) | 11.4 µM (inactive) | 2.52 µM (inactive) | 4 µM (inactive) | 2.38 µM (inactive) | 2.05 µM (inactive) | 2.25 µM (inactive) | 9.57 µM (inactive) | 2.62 µM (inactive) | 3.28 µM (inactive)
3 | CN(NC(=O)c1cccs1)C1=NCCN1 | > 100 µM (inactive) | > 100 µM (inactive) | > 100 µM (inactive) | > 100 µM (inactive) | > 100 µM (inactive) | > 100 µM (inactive) | > 100 µM (inactive) | > 100 µM | > 100 µM (inactive) | > 100 µM (inactive) | > 100 µM (inactive) | > 100 µM (inactive) | > 100 µM (inactive) | > 100 µM (inactive) | > 100 µM (inactive) | > 100 µM (inactive) | > 100 µM (inactive) | > 100 µM (inactive) | > 100 µM (inactive) | > 100 µM (inactive)
4 | CCCCC(=O)OC[n+]1cccc(-c2c(COC(=O)NC(C)C)c(COC(=O)NC(C)C)c3n2CCC3)c1 | 45.3 µM (inactive) | 38.5 µM (inactive) | > 100 µM (inactive) | 8.93 µM (inactive) | 26.2 µM (inactive) | 24.8 µM (inactive) | > 100 µM (inactive) | 53.3 µM | > 68.1 µM (inactive) | 50 µM (inactive) | 52.2 µM (inactive) | > 92.3 µM (inactive) | 26.3 µM (inactive) | 51.5 µM (inactive) | 28.8 µM (inactive) | 64.9 µM (inactive) | 28.8 µM (inactive) | 81.1 µM (inactive) | 34.9 µM (inactive) | 57.3 µM (inactive)
5 | S=C(N/N=C\C=N/NC(=S)N1CCCCCC1)N1CCCCCC1 | 5.21 µM (inactive) | 6.78 µM (inactive) | > 64.9 µM (inactive) | 7.1 µM (inactive) | > 31.1 µM (inactive) | 10.5 µM (inactive) | 18.7 µM (inactive) | 8.02 µM | > 100 µM (inactive) | 22.5 µM (inactive) | 7.73 µM (inactive) | 34.2 µM (inactive) | 59 µM (inactive) | 26 µM (inactive) | 14.3 µM (inactive) | 42.8 µM (inactive) | > 100 µM (inactive) | 6.85 µM (inactive) | 15.6 µM (inactive) | 13.8 µM (inactive)
6 | CCCCC(=O)N/S(=N/C(=O)c1ccccc1)C(Cl)(Cl)Cl (stereo not given) | > 100 µM (inactive) | > 100 µM (inactive) | > 100 µM (inactive) | > 100 µM (inactive) | > 100 µM (inactive) | > 100 µM (inactive) | > 100 µM (inactive) | > 100 µM | > 100 µM (inactive) | > 100 µM (inactive) | > 100 µM (inactive) | > 100 µM (inactive) | > 100 µM (inactive) | > 100 µM (inactive) | > 100 µM (inactive) | > 100 µM (inactive) | > 100 µM (inactive) | > 100 µM (inactive) | > 100 µM (inactive) | > 100 µM (inactive)
7 | CC(=O)NC1C(O)C(O)C(CO)OC1n1nc(SCc2ccccc2)c(=O)[nH]c1=O (stereo not given) | > 100 µM (inactive) | > 100 µM (inactive) | > 100 µM (inactive) | > 100 µM (inactive) | > 100 µM (inactive) | > 100 µM (inactive) | > 100 µM (inactive) | > 100 µM | > 100 µM (inactive) | > 65 µM (inactive) | > 100 µM (inactive) | > 100 µM (inactive) | > 100 µM (inactive) | > 100 µM (inactive) | > 100 µM (inactive) | > 100 µM (inactive) | > 100 µM (inactive) | > 100 µM (inactive) | > 100 µM (inactive) | > 100 µM (inactive)
8 | COc1cc2nc(-c3ccccc3)cc(O)c2cc1OC | 6.95 µM (inactive) | 10.8 µM (inactive) | 16.5 µM (inactive) | 17.6 µM (inactive) | 21.8 µM (inactive) | 41.6 µM (inactive) | 3.81 µM (inactive) | 10.2 µM | 41.1 µM (inactive) | 12.1 µM (inactive) | 18.5 µM (inactive) | 25.2 µM (inactive) | 33.7 µM (inactive) | 28.2 µM (inactive) | 2.54 µM (inactive) | 2.86 µM (inactive) | > 100 µM (inactive) | 18.5 µM (inactive) | 54.8 µM (inactive) | 4.44 µM (inactive)
9 | CCN(CC)CCCn1c(=O)c2cccnc2n2c3c(=O)n(C)c(=O)n(C)c3nc12 | > 100 µM (inactive) | > 100 µM (inactive) | > 100 µM (inactive) | > 100 µM (inactive) | > 100 µM (inactive) | > 100 µM (inactive) | > 100 µM (inactive) | > 100 µM | > 100 µM (inactive) | > 100 µM (inactive) | > 100 µM (inactive) | > 100 µM (inactive) | > 100 µM (inactive) | > 100 µM (inactive) | > 100 µM (inactive) | > 100 µM (inactive) | > 100 µM (inactive) | > 100 µM (inactive) | > 100 µM (inactive) | > 100 µM (inactive)
10 | CCC1OC2C(CC=C(C)C)=C3OC(C)(O)C(C)(CC)C(OC(=O)c4ccccc4)C3=C3OC(=O)C=C1C32 (stereo not given) | 67.9 µM (inactive) | 57.1 µM (inactive) | 21.8 µM (inactive) | 23.1 µM (inactive) | 35.2 µM (inactive) | 36 µM (inactive) | 39.9 µM (inactive) | 38.4 µM | 54.1 µM (inactive) | 42.4 µM (inactive) | 34.3 µM (inactive) | 23.8 µM (inactive) | 70 µM (inactive) | 50.7 µM (inactive) | 47.6 µM (inactive) | 36.1 µM (inactive) | 19.1 µM (inactive) | 41.4 µM (inactive) | 36.3 µM (inactive) | 51.6 µM (inactive)
11 | O=P(c1ccccc1)(c1ccccc1)N1O[C@@H](c2ccccc2)C=C[C@H]1c1ccccc1 | 4.37 µM (inactive) | 12.9 µM (inactive) | 13.7 µM (inactive) | 5.32 µM (inactive) | 10.8 µM (inactive) | 12.4 µM (inactive) | 14.5 µM (inactive) | 10 µM | 16 µM (inactive) | 13.3 µM (inactive) | 11.6 µM (inactive) | 14.8 µM (inactive) | 11.6 µM (inactive) | 10.8 µM (inactive) | 3.4 µM (inactive) | 4.2 µM (inactive) | 17.5 µM (inactive) | 8.81 µM (inactive) | 7.13 µM (inactive) | 11.6 µM (inactive)
12 | O=C(/C=C/c1ccccc1Br)c1ccccc1 | 1.56 µM (inactive) | 1.58 µM (inactive) | 2.89 µM (inactive) | 2.84 µM (inactive) | 4.39 µM (inactive) | 3.58 µM (inactive) | 2.14 µM (inactive) | 2.11 µM | 16.1 µM (inactive) | 12 µM (inactive) | 11.3 µM (inactive) | 10.9 µM (inactive) | 16.7 µM (inactive) | 2.99 µM (inactive) | 0.427 µM (active) | 2.46 µM (inactive) | 13.6 µM (inactive) | 12 µM (inactive) | 6.08 µM (inactive) | 10.4 µM (inactive)
13 | C=C1C(=O)OC2/C=C(CO)/C=C\C3OC3(C)CC(OC(=O)/C(C)=C/COC(C)=O)C12 (stereo not given) | 3.95 µM (inactive) | 1.37 µM (inactive) | 13.4 µM (inactive) | 0.802 µM (active) | 3.08 µM (inactive) | 4.04 µM (inactive) | 5.28 µM (inactive) | 1.87 µM | 13.9 µM (inactive) | 7.8 µM (inactive) | 14.8 µM (inactive) | 12.5 µM (inactive) | 2.62 µM (inactive) | 7.8 µM (inactive) | 3.15 µM (inactive) | 2 µM (inactive) | 1.57 µM (inactive) | 11.9 µM (inactive) | 3.97 µM (inactive) | 2.46 µM (inactive)
14 | COc1ccccc1C1c2cc3c(cc2OC(N2CCCC2)C1C)OCO3 (stereo not given) | 18.8 µM (inactive) | 18 µM (inactive) | 15.8 µM (inactive) | 3.16 µM (inactive) | 18.3 µM (inactive) | 13.6 µM (inactive) | 19.3 µM (inactive) | 17.2 µM | 19.2 µM (inactive) | 12.9 µM (inactive) | 16.7 µM (inactive) | 17.9 µM (inactive) | 3.08 µM (inactive) | 19.3 µM (inactive) | 18.9 µM (inactive) | 12.4 µM (inactive) | 16.8 µM (inactive) | 18.4 µM (inactive) | 18.5 µM (inactive) | 15.7 µM (inactive)
